Reference: patent publication US12202827B2, “Aldosterone synthase inhibitor” (DAMIAN PHARMA AG, priority 2016, dated 2025)
Like-named read-outs stand apart in the source and are kept apart here.

Assays:
[1] = up to 225° C., TGA/DSC
Protocol: The thermogravimetric analysis and differential scanning calorimetry (TGA/DSC) studies were performed using a Mettler Toledo TGA/DSC1 STARe System with a 34-position auto sampler. The samples were made using Al crucibles (40 μL; pierced). Typically 5-10 mg of sample was loaded into a pre-weighed Al crucible and was kept at 30° C. for 5 minutes, after which it was heated at 10° C./min from 30° C. to 350° C. A nitrogen purge of 40 ml/min was maintained over the sample. The software used for data collection and evaluation was STARe Software v12.10 build 5937. No corrections were applied to the thermogram.

[2] = Hygroscopicity, open flasks in unconditioned ambient air for 24 hours; conditions: open flask
Protocol: 100 mg samples of the two crystalline salts were stored in open flasks for 24 hours side by side at room temperature in unconditioned ambient air and weight measurements occurred at time 0 and after 24 hours (Table 6).

[3] = Dynamic Vapour Sorption (DVS); type: physicochemical
Protocol: The Dynamic Vapour Sorption (DVS) studies were performed using a Surface Measurement Systems Ltd. DVS-1 No Video. The sample was loaded into a balance pan, typically 20-30 mg, and equilibrated at 0% RH. After the material was dried, the RH was increased with 10% per step for 1 hour per increment, ending at 95% RH. After completion of the sorption cycle, the sample was dried using the same method. The software used for data collection was DVSWin v3.01 No Video. Data analysis was performed using DVS Standard Analysis Suite v6.3.0 (Standard).

[4] = Solid state characterization of salts obtained as solids; type: physicochemical
[5] = Protocol: The X-ray powder diffraction studies were performed using a Bruker AXS D2 PHASER in Bragg-Brentano configuration. Using a Cu anode at 30 kV, 10 mA; sample stage standard rotating; monochromatisation by a Kβ-filter (0.5% Ni). Slits: fixed divergence slits 1.0 mm (=0.61°), primary axial Soller slit 2.5°, secondary axial Soller slit 2.5°. Detector: Linear detector LYNXEYE with receiving slit 5° detector opening. […] Measurement conditions: scan range 5 to 45° 2theta, sample rotation 5 rpm, 0.5 s/step, 0.010°/step, 3.0 mm detector slit; and all measuring conditions were logged in the instrument control file. As system suitability, corundum sample A26-826-S(NIST standard) was measured daily.
[6] = Shake-flask solubility study; conditions: 20° C.
Remark: listed apart in the source
[7] = Acetic acid, sample DF1181-5-S11
[8] = Acetonitrile, sample DF1181-5-S7
[9] = Dichloromethane, sample DF1181-5-S2
[10] = Ethyl acetate, sample DF1181-5-S5
[11] = Methyl tert-butyl ether, sample DF1181-5-S3

N#Cc1ccc([C@H]2CCCc3cncn32)cc1.O=P(O)(O)O
Mass loss upon heating [1]: 1.4% | Hygroscopicity (assessment in words) ([2]; ambient air): non-hygroscopic | Absolute weight ([2]; room temperature, unconditioned ambient air): 103.9 mg | Weight increase ([2]; room temperature, unconditioned ambient air, listed as Phosphate Salt): 0.57% | Reversibility of water uptake ([3]; DVS sorption/desorption cycles): reversible | Crystalline form upon DVS treatment (XRPD) ([3]; before and after DVS cycles): does not change | Crystallinity [4]: good | Hygroscopicity (DVS) [4]: low | Polymorph tendency (XRPD) [4]: Not observed | Solid phase transition (XRPD) [4]: Not observed | Solvation [4]: anhydrous | Water solubility [4]: good | XRPD after solubility determination [5, 7]: Amorphous | XRPD after solubility determination ([5]; Acetone, sample DF1181-5-S4): Form I-Conform starting material | XRPD after solubility determination [5, 8]: Form I-Conform starting material | XRPD after solubility determination [5, 9]: Form I-Conform starting material | XRPD after solubility determination ([5]; Ethanol, sample DF1181-5-S6): Form I-Conform starting material | XRPD after solubility determination [5, 10]: Form I-Conform starting material | XRPD after solubility determination ([5]; Methanol, sample DF1181-5-S1): Form I-Conform starting material | XRPD after solubility determination [5, 11]: Form I-Conform starting material | XRPD after solubility determination ([5]; Toluene, sample DF1181-5-S10): Form I-Conform starting material | XRPD after solubility determination ([5]; Water, sample DF1181-5-S9): Form I-Conform starting material | XRPD after solubility determination ([5]; n-Heptane, sample DF1181-5-S8): Form I-Conform starting material | Solubility [6, 7]: 118 to 1180 mg/mL | Solubility ([6]; Acetone, sample DF1181-5-S4): <0.09 mg/mL | Solubility [6, 8]: <0.11 mg/mL | Solubility [6, 9]: <0.10 mg/mL | Solubility ([6]; Ethanol, sample DF1181-5-S6): 0.1 to 1.0 mg/mL | Solubility [6, 10]: <0.09 mg/mL | Solubility ([6]; Methanol, sample DF1181-5-S1): 112 to 1120 mg/mL | Solubility [6, 11]: <0.11 mg/mL | Solubility ([6]; Toluene, sample DF1181-5-S10): <0.10 mg/mL | Solubility ([6]; Water, sample DF1181-5-S9): >1000 mg/mL | Solubility ([6]; n-Heptane, sample DF1181-5-S8): <0.11 mg/mL | XRPD (polymorphic form) (wells 1-6, solvent Formic acid, co-solvent Water): Form I | XRPD (polymorphic form) (wells 7-12, solvent 2-Butanone, co-solvent n-Heptane): Form I | XRPD (polymorphic form) (wells 13-18, solvent Acetic acid, co-solvent Water): Form I | XRPD (polymorphic form) (wells 19-24, solvent Cyclohexanone, co-solvent n-Heptane): Form I | XRPD (polymorphic form) (wells 25-30, solvent Methanol, co-solvent Water): Form I | XRPD (polymorphic form) (wells 31-36, solvent Ethylacetate, co-solvent n-Heptane): Form I | XRPD (polymorphic form) (wells 37-42, solvent Ethanol, co-solvent Water): Form I | XRPD (polymorphic form) (wells 43-48, solvent Isopropyl acetate, co-solvent n-Heptane): Form I | XRPD (polymorphic form) (wells 49-54, solvent 2-Propanol, co-solvent Water): Form I | XRPD (polymorphic form) (wells 55-60, solvent Cyclopentyl methyl ether, co-solvent n-Heptane): Form I | XRPD (polymorphic form) (wells 61-66, solvent Acetone, co-solvent Water): Form I | XRPD (polymorphic form) (wells 67-72, solvent Toluene, co-solvent n-Heptane): Form I | XRPD (polymorphic form) (wells 79-84, solvent Cyclohexane, co-solvent n-Heptane): Form I | XRPD (polymorphic form) (wells 85-90, solvent Tetrahydrofuran, co-solvent Water): Form I | XRPD (polymorphic form) (wells 91-96, solvent Chlorobenzene, co-solvent n-Heptane): Form I
